Literature values, collected in publication PMC9851200, “Multiparameter phenotypic screening for endogenous TFEB and TFE3 translocation identifies novel chemical series modulating lysosome function” (Autophagy, 2022).

How the values were obtained:
Design in all cases: method as in original PKIS2 published data
[1] = molecular target: T1, kinases (KINOMEscan panel) (Homo sapiens, UniProt Q96PY6); conditions: kinase NEK1; Published KINOMEscan; ref original PKIS2 published data; cited from earlier work
T1 sequence (Q96PY6 1-1258): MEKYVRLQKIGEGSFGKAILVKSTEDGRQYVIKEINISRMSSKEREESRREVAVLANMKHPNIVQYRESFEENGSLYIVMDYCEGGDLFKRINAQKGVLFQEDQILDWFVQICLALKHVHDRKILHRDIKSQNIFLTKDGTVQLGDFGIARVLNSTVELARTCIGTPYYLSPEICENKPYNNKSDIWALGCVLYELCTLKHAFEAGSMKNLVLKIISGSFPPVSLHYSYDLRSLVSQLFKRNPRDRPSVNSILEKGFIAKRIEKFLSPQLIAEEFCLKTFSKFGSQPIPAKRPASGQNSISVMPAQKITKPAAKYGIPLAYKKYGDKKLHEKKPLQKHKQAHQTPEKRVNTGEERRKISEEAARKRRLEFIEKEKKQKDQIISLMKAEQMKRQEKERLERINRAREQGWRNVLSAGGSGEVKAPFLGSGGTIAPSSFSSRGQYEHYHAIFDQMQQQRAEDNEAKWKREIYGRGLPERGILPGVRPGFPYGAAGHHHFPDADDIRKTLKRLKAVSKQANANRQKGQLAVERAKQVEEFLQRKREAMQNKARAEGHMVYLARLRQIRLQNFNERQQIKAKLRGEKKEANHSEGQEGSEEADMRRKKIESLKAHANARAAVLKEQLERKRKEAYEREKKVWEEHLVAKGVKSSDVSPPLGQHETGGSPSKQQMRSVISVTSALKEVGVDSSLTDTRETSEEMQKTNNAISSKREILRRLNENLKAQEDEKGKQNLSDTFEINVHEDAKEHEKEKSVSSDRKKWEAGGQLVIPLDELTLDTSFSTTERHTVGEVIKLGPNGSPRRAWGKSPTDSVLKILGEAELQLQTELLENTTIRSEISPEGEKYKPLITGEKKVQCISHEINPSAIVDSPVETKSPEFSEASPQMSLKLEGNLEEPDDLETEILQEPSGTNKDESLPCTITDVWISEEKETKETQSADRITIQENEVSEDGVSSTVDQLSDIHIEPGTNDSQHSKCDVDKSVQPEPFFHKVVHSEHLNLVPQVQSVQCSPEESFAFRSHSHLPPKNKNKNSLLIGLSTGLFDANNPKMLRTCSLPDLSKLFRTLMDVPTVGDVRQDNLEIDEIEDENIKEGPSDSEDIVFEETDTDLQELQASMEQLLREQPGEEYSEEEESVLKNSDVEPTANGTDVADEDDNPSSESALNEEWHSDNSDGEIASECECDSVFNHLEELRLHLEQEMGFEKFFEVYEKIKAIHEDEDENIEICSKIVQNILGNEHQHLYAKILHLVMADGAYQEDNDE

[2] = molecular target: T2, kinases (KINOMEscan panel) (Homo sapiens, UniProt Q8NE63); conditions: kinase HIPK4; Published KINOMEscan; ref original PKIS2 published data; cited from earlier work
T2 sequence (Q8NE63 1-616): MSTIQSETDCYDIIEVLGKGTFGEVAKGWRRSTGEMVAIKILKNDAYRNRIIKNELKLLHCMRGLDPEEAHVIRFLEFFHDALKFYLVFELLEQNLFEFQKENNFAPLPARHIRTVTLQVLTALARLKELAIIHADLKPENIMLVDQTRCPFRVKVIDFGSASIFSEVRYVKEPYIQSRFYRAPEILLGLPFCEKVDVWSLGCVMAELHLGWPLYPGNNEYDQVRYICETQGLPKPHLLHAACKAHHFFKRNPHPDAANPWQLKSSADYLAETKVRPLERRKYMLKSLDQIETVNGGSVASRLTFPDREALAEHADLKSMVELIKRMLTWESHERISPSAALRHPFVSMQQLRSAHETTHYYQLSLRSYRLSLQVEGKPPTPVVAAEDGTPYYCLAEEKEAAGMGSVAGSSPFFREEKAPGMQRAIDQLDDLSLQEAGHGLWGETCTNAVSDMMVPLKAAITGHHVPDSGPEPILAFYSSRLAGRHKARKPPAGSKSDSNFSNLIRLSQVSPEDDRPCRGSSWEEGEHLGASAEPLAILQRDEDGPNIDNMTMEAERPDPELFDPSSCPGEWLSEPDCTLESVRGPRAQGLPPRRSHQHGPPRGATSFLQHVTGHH

[3] = molecular target: kinases (KINOMEscan panel) (Homo sapiens, UniProt P49840); conditions: GSK3A; Published KINOMEscan; ref original PKIS2 published data; cited from earlier work
Chain of kinases (KINOMEscan panel) (Homo sapiens, UniProt P49840) (P49840 whole entry): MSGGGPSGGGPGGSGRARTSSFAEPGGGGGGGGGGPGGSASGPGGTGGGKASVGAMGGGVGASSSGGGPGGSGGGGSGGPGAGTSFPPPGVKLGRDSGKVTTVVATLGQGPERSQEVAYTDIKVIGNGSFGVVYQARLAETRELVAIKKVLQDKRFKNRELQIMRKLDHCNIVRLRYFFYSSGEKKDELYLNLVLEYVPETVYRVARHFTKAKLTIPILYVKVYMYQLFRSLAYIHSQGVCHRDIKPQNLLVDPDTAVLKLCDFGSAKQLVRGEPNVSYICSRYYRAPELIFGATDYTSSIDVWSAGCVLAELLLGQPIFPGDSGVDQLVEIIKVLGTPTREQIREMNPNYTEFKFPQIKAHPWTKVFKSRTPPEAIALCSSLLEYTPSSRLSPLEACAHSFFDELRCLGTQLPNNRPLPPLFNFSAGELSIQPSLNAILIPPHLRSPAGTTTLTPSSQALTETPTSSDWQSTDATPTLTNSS

Cc1cccc(-c2nc(Nc3ccncc3)c3ccccc3n2)n1 [NK215]
KINOMEscan NEK1 [1]: 0
KINOMEscan HIPK4 [2]: 19
KINOMEscan GSK3A [3]: 4
